One series concerns LG-protein adducts. Kind of series: IHC for LG-protein adducts in colons of AOM-DSS mice. The class given is in vivo, C57BL/6 mice. The following applies: 1.5 mg/ml EtHOBA. An excerpt:
The present inventors performed immunohistochemistry (IHC) staining using the single chain antibody (Ab) D11, which specifically binds to L G-protein adducts, and a tissue microarray (TMA) from VUMC that contains colon tissues from patients with ulcerative colitis (UC), and associated precancerous and cancerous lesions. Histopathologic diagnoses were established from clinical case material from surgical resections and confirmed by H&E staining of the TMA. High levels of L G-protein adducts were present in active colitis, dysplasia, and carcinoma compared to normal patients (FIG. 2). On the TMA, 7/9 (78%) high grade dysplasia (HGD) cores and 21/23 (91%) CAC cores were scored positive for L G adducts.
Animals receive an i.p. injection of the carcinogen AOM (12.5 mg/kg) followed by 3 cycles of 4% DSS, each for 4 days, over a total of 56-77 days. To directly determine the role of electrophiles in colon carcinogenesis, the present inventors tested the effect of EtHOBA in C57BL/6 mice in the AOM-DSS model. Mice were given 1.5 mg/ml EtHOBA one day after AOM and continued throughout the experiments, except during the DSS cycles, to avoid mixing. The present inventors assessed electrophiles in colons of mice treated with AOM-DSS, by IHC for electrophile protein adducts. […]

The test system of series [1] is Mongolian gerbils infected with Hp 7.13. The experiment in a line: Gastric cancer development in Mongolian gerbils infected with Hp 7.13. It is filed as in vivo. The note with it: gerbils infected with Hp 7.13, EtSA 0.75% in water. As for the experimental part: As discussed further in the Examples, the human gastric epithelial cell line AGS was infected with Hp PMSS1±10 mM EtSA. FVB/N insulin-gastrin (INS-GAS) mice and Mongolian gerbils were infected for 8 wk with Hp PMSS1 and 7.13, respectively; EtSA (0.75% in water) was given to animals beginning one wk post-infection. Lys-LG adducts, a marker of electrophile reactions, and EtSA were quantified by LC/EST/MS/MS. Histology was analyzed on H&E staining. DNA damage was evaluated by pH2AX staining. Hp colonization was quantified by culture. Mucosal immune responses were determined by RNA profiling and by Luminex assay. Mice were imaged using PET/CT with ^18F-FDG (inflammation marker) and ^18F—NaF (tumor marker).

Series [2] deals with C57BL/6 mice in the AOM-DSS model. The experiment in a line: AOM-DSS model of colitis-associated carcinoma (tumors, dysplasia, body weight). The class given is in vivo. On the procedure:
FIGS. 5A, 5B, 5C, 5D, 5E, 5F, and 5G show mice (n=10-12/group)±AOM-DSS±1.5 mg/ml EtHOBA. (A) Body weight; ″P<0.05 compared to AOM-DSS-treated mice. (B) Tumor number. (C) Average tumor size per mouse. (D) Tumor burden. (E) Number of adenomas. (F) Frequency of diagnoses; ND, no dysplasia. (G) H&E staining; each arrow depicts a tumor. Scale bar, 50 μm.
Animals receive an i.p. injection of the carcinogen AOM (12.5 mg/kg) followed by 3 cycles of 4% DSS, each for 4 days, over a total of 56-77 days. To directly determine the role of electrophiles in colon carcinogenesis, the present inventors tested the effect of EtHOBA in C57BL/6 mice in the AOM-DSS model. Mice were given 1.5 mg/ml EtHOBA one day after AOM and continued throughout the experiments, except during the DSS cycles, to avoid mixing. The present inventors assessed electrophiles in colons of mice treated with AOM-DSS, by IHC for electrophile protein adducts. […] In total, without the scavenger treatment, 25% of mice had HGD and the remaining 75% had L GD; in contrast, in those receiving EtHOBA, 20% had no dysplasia, none had HGD, and 80% had only L GD, a significant overall difference in diagnoses (FIGS. 5F-G).

Series [3] in a line: Reaction rate of scavengers with dicarbonyl electrophiles / LG relative to lysine. The following applies: faster than lysine. An excerpt:
Under conditions such as inflammation and/or accumulated mutations, epithelial cells and adjacent immune cells express genes encoding enzymes involved in carcinogenesis, such as prostaglandin-endoperoxide synthase (PGHS2; COX2), NADPH oxidases, and spermine oxidase. The products of these enzymes (prostaglandins, O2D, and H2O2 plus 3-aminopropanal) lead to formation of dicarbonyl electrophiles: levuglandins (LGs), malondialdehyde (MDA), 4-oxo-nonenal (4-O NE), and acrolein. Electrophiles may lead to immune dysfunction and neoplastic risk by forming adducts with proteins and DNA11-15. However, the role of these reactive aldehydes in colon carcinogenesis is previously unknown. The present inventors have discovered that the level of LG-protein adducts is increased in the colon tissues of i) human ulcerative colitis (UC), colitis-associated carcinogenesis (CAC), and CRC; ii) mice treated with azoxymethane-dextran sulfate sodium (AOM-DSS), a model of CAC; and iii) transgenic mice with a tamoxifen-inducible disruption of Apc using the colon-specific, caudal type homeobox 2 (CDX2) Cre (CDX2P-CreERT2;Apcff), which recapitulates sporadic/genetically-driven CRC. […]

[4] abbreviates: AOM-DSS, 1.5 mg/ml EtHOBA vs AOM-DSS alone.

One molecule from patent US11696903B2, “Compounds and methods for scavenging dicarbonyl electrophiles” (VANDERBILT UNIVERSITY, priority 2019, dated 2023) can be followed below.

`CCc1ccc(O)c(CN)c1` [EtHOBA, 5-ethyl-2-hydroxybenzylamine]: the “LG-protein adducts (IHC staining)” value in the series on LG-protein adducts is recorded as “marked attenuation”. For the same molecule, in series [1], the “frequency of gastric cancer development” value is “reduced”. Further, in series [2] (AOM-DSS + EtHOBA, without scavenger 25%), the “mice with high grade dysplasia (HGD)” value was “none”. In series [2] (AOM-DSS + EtHOBA, without scavenger 75%), the “mice with only low-grade dysplasia (LGD)” value was 80%. The “mice with no dysplasia” value in series [2] (AOM-DSS + EtHOBA, without scavenger all mice had dysplasia) was found to be 20%. Moreover, in series [2] (setting [4]), the Tumor number result is “significantly less tumors”, the “body weight loss at each cycle of DSS” value is given as “less weight loss”, the “number of histologic adenomas” value was “reduced number” and the total tumor burden result is listed as “lower”. The tumor size result in series [2] (setting [4]) is given as “lower tumor size”. Besides, the “body weight in control mice” value in series [2] (control mice treated for 56 days, 1.5 mg/ml EtHOBA) is given as “no change in body weight”. In addition, the “rate of reaction with dicarbonyl electrophiles” value in series [3] is 3 orders of magnitude.
